Results: US20250129021A1, “SMALL MOLECULE PROTEIN SYNTHESIS MODULATORS” (Interdict Bio, Inc., priority 2023, published 2025)
Like-named read-outs stand apart in the source and are kept apart here.

Experiments:
[1] = system: MYC; assay: In vitro transcription-translation (IVTT) assay, MYC reporter; type: biochemical; conditions: HeLa S3 lysate, 2 hrs at 30° C.
How it was run: (§1)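 Reporter: mCherry, P2A, then 3×FLAG-target peptide-sfGFP fusion, IRES-initiated; HeLa S3 lysate IVTT; cpd dilutions 30 μM−0.1 μM half-log in 100% DMSO (dilution-plate conc); DNA added last; 2 h, 30° C; PBS quench.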

[2] = system: MCL-1; assay: In vitro transcription-translation (IVTT) assay, MCL-1 reporter; type: biochemical; conditions: HeLa S3 lysate, sfGFP/mCherry ratio
How it was run: as §1

[3] = system: ALK; assay: In vitro transcription-translation (IVTT) assay, ALK reporter; type: biochemical; conditions: HeLa S3 lysate, sfGFP/mCherry ratio, 2 hrs at 30° C.
How it was run: as §1

[4] = system: KRAS G12D; assay: In vitro transcription-translation (IVTT) assay, KRAS G12D reporter; type: biochemical; conditions: HeLa S3 lysate, sfGFP/mCherry ratio, 2 hrs at 30° C.
How it was run: as §1

[5] = system: HEK 293T; assay: Cell viability (CellTiter-Fluor), HEK 293T; type: cell-based; conditions: Homo sapiens, 24-72 hrs
Procedure: (§2) Count and dispense 2,000-10,000 cells per well (100 μL volume) in black 96-well tissue culture microplate and let cells adhere overnight. Add compound dissolved in 100% DMSO to each well as needed and incubate cells in standard culture conditions for 24-72 hrs. Final DMSO concentration in each well should be 0.1-0.5%. At the desired time point, gently aspirate compound containing media and replace with PBS to wash. Repeat wash step for 2 total washes. Remove PBS and add 100 μL CellTiter-Fluor reagent (Promega) reagent to each well. Seal plate and incubate 1 hr at room temperature with orbital shaking. Analyze fluorescence using plate reader to quantify viable cells compared with vehicle (DMSO) control.

[6] = system: HPAF-II; assay: Cell viability (CellTiter-Fluor), HPAF-II; type: cell-based; conditions: Homo sapiens, 24-72 hrs
Procedure: as §2

[7] = system: KLE; assay: Cell viability (CellTiter-Fluor), KLE; type: cell-based; conditions: Homo sapiens, 24-72 hrs
Procedure: as §2

[8] = system: LS411N; assay: Cell viability (CellTiter-Fluor), LS411N; type: cell-based; conditions: Homo sapiens, LS-411N, 24-72 hrs
Procedure: as §2

[9] = system: MCF7; assay: Cell viability (CellTiter-Fluor), MCF7; type: cell-based; conditions: Homo sapiens, 24-72 hrs
Procedure: as §2

[10] = system: NCI-H1915; assay: Cell viability (CellTiter-Fluor), NCI-H1915; type: cell-based; conditions: 24-72 hrs
Procedure: as §2

[11] = system: HCC38; assay: Cell viability (CellTiter-Fluor), HCC38; type: cell-based; conditions: Homo sapiens, 24-72 hrs
Procedure: as §2

[12] = system: KATO-III; assay: Cell viability (CellTiter-Fluor), KATO-III; type: cell-based; conditions: Homo sapiens, 24-72 hrs
Procedure: as §2

[13] = system: MS751; assay: Cell viability (CellTiter-Fluor), MS751; type: cell-based; conditions: 24-72 hrs
Procedure: as §2

[14] = system: T47D; assay: Cell viability (CellTiter-Fluor), T47D; type: cell-based; conditions: Homo sapiens, 24-72 hrs
Procedure: as §2

[15] = system: CCND1; assay: In vitro transcription-translation (IVTT) assay, CCND1 reporter; type: biochemical; conditions: HeLa S3 lysate, sfGFP/mCherry ratio
How it was run: as §1

[16] = system: CCNTB1; assay: In vitro transcription-translation (IVTT) assay, CCNTB1 reporter; type: biochemical; conditions: HeLa S3 lysate, sfGFP/mCherry ratio
How it was run: (§3)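 Cell-free HeLa S3 lysate reactions expressing sfGFP/mCherry reporter constructs ran 2 h at 30 °C with compound from half-log DMSO series (30 μM–0.1 μM as prepared), then were quenched with PBS. No-DNA background was subtracted, and the sfGFP/mCherry ratio was normalized to the no-drug control and fit for IC50.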

[17] = system: cGAS; assay: In vitro transcription-translation (IVTT) assay, cGAS reporter; type: biochemical; conditions: HeLa S3 lysate, sfGFP/mCherry ratio
Procedure: (§4) In vitro transcription-translation assay setup: Each assay includes a master mix containing lysate and shared components, a 96-well plate containing compound titrations for testing, a 96-well DNA plate with reporter constructs to be tested, 96-well skirted PCR plates, and 96-well flat-bottom, black, fluorescent assay plates. Reaction materials setup: (A) Master mix—15 mL conical tube (3 mL of HeLa S3 Lysate described above; 0.6 mL of ThermoFisher Accessory Proteins (#88882); 1.2 ml of ThermoFisher Reaction Mix (#88882); 0.54 mL of nuclease-free Water); (B) 96-Well Master Mix+Compound Plate (Half-log dilutions (30 μM−0.1 μM) of 4 compounds of interest are prepared in 100% DMSO); 96-Well DNA Plate (Five DNA constructs are plated into single columns within the plate. Row 1 of the column contains nuclease free H2O, all other wells contain 110 ng/μL plasmid DNA). Reactions are started by mixing 155 μL of master mix and 3.5 μL of compound serial dilutions, then 9.1 μL of master mix+compound mixture is aliquoted across 5 96-well plates. Reactions begin with final addition of 2 μL of DNA for a 11.1 μL reaction volume in each well. The entire plate is sealed, and incubated for 2 hrs at 30° C. After 2 hrs, quench the assay using 45 μL of PBS, and transfer 50 μL to a flat-bottom black microplate Quantify the sfGFP and mCherry signals from each well on each plate, taking 3 reads of each plate, and perform data analysis below.
(§5) In vitro transcription-translation assay data analysis: Each plate is read three times in channels for both sfGFP and mCherry signals. The average signal across these 3 reads is then calculated for further analysis. Control wells containing no DNA reporter are subtracted from reporter wells in the same column to remove auto-fluorescence of the lysate. Then, the ratio of sfGFP/mCherry is calculated per well, and these ratios are averaged across the triplicate experiments on the same plate. Finally, the ratio of each titration concentration is normalized to the no drug control to create the normalized stalling metric. The error on this measurement is determined by propagating error through the averaging and normalization steps. Values are plotted and fit for IC50 determination for each test sequence and titration of compound.

[18] = system: STING; assay: In vitro transcription-translation (IVTT) assay, STING reporter; type: biochemical; conditions: HeLa S3 lysate, sfGFP/mCherry ratio
Procedure: as §4, §5

[19] = system: JAK1; assay: In vitro transcription-translation (IVTT) assay, JAK1 reporter; type: biochemical; conditions: HeLa S3 lysate, sfGFP/mCherry ratio
Procedure: as §4, §5

[20] = system: NFKB1; assay: In vitro transcription-translation (IVTT) assay, NFKB1 reporter; type: biochemical; conditions: HeLa S3 lysate, sfGFP/mCherry ratio
How it was run: as §3

[21] = system: HEPG2; assay: Cell viability (CellTiter-Fluor), HEPG2; type: cell-based; conditions: Homo sapiens, 24-72 hrs
Procedure: as §2

[22] = IVTT assay, MYC reporter, normalized sfGFP/mCherry ratio, half-log dilutions 30 μM-0.1 μM
[23] = IVTT assay, read-out: MCL1 IC50

SMILES	IC50 ([1]; sfGFP/mCherry ratio)	IC50 ([2]; 2 hrs at 30° C.)	IC50 [3]	IC50 [4]	IC50 [5]	IC50 [6]	IC50 [7]	IC50 [8]	IC50 [9]	IC50 [10]	IC50 [11]	IC50 [12]	IC50 [1, 22]	IC50 ([15]; IVTT assay)	IC50 [2, 23]	IC50 [16]	IC50 [17]	IC50 [18]	IC50 [19]	IC50 [20]	further results
COc1ccc(C[C@H]2NC[C@H](O)[C@H]2OC(=O)NCC2CC2)cc1 [V187189, (2R,3S,4S)-4-hydroxy-2-[(4-methoxyphenyl)methyl]pyrrolidin-3-yl N-(cyclopropylmethyl)carbamate; trifluoroacetic acid]	< 10 µM	< 10 µM	< 10 µM	< 10 µM	< 0.25 µM	0.25 to 1 µM	0.25 to 1 µM	< 0.25 µM	0.25 to 1 µM	0.25 to 1 µM	0.25 to 1 µM	0.25 to 1 µM									IC50 [13]: 0.25 to 1 µM; IC50 [14]: 0.25 to 1 µM
O=C(NCc1cccc(C2CNC2)c1)O[C@@H]1[C@@H](O)CN[C@@H]1Cc1ccc(-c2cnco2)cc1 [V192154, (2R,3S,4S)-4-hydroxy-2-{[4-(1,3-oxazol-5-yl)phenyl]methyl}pyrrolidin-3-yl N-{[3-(azetidin-3-yl)phenyl]methyl}carbamate]													< 10 µM	< 10 µM	< 10 µM	< 10 µM	< 10 µM	< 10 µM	< 10 µM	< 10 µM	
O=C(NCC[C@@H]1CCCN1)O[C@@H]1[C@@H](O)CN[C@@H]1Cc1ccc(-c2cnco2)cc1 [V192047, (2R,3S,4S)-4-hydroxy-2-{[4-(1,3-oxazol-5-yl)phenyl]methyl}pyrrolidin-3-yl N-{2-[(2S)-pyrrolidin-2-yl]ethyl}carbamate]													< 10 µM	< 10 µM	< 10 µM	< 10 µM	< 10 µM	< 10 µM	< 10 µM	< 10 µM	
COc1ccc(C[C@H]2NC[C@H](O)[C@H]2OC(=O)NCc2c[nH]nn2)cc1 [V187536, (2R,3S,4S)-4-hydroxy-2-[(4-methoxyphenyl)methyl]pyrrolidin-3-yl N-(1H-1,2,3-triazol-4-ylmethyl) carbamate; trifluoroacetic acid]	< 10 µM	< 10 µM	< 10 µM	< 10 µM	0.25 to 1 µM	1 to 4 µM	1 to 4 µM	1 to 4 µM	1 to 4 µM	1 to 4 µM	1 to 4 µM	1 to 4 µM									IC50 ([15]; 2 hrs at 30° C.): < 10 µM; IC50 [21]: 1 to 4 µM; IC50 [13]: 0.25 to 1 µM; IC50 [14]: 1 to 4 µM
O=C(NCc1ccnc(N2CCC2)c1)O[C@@H]1[C@@H](O)CN[C@@H]1Cc1ccc(-c2cnco2)cc1 [V192160, (2R,3S,4S)-4-hydroxy-2-(4-(oxazol-5-yl)benzyl)pyrrolidin-3-yl ((2-(azetidin-1-yl)pyridin-4-yl)methyl)carbamate]													< 10 µM	< 10 µM	< 10 µM	< 10 µM	< 10 µM	< 10 µM	< 10 µM	< 10 µM	
